Values quoted from earlier work in US20070224637A1, “Oxidative protection of lipid layer biosensors” (priority 2006, published 2007).

Compound | Solubility In alcohol | Solubility In water | Solubility In oil
O=S([O-])S(=O)(=O)[O-].[Na+].[Na+] [Sodium metabisulfite] | Slightly | Yes | –
O=S([O-])O.O=S([O-])O.[Ca+2] [Calcium bisulfite] | – | Yes | –
N[C@@H](CS)C(=O)O [Cysteine] | Yes | Yes | No
N[C@@H](CCC(=O)N[C@@H](CS)C(=O)NCC(=O)O)C(=O)O [Glutathione] | – | Yes | –
O=C(OC[C@H]1O[C@@H](OC(=O)c2cc(O)c(O)c(OC(=O)c3cc(O)c(O)c(O)c3)c2)[C@H](OC(=O)c2cc(O)c(O)c(OC(=O)c3cc(O)c(O)c(O)c3)c2)[C@@H](OC(=O)c2cc(O)c(O)c(OC(=O)c3cc(O)c(O)c(O)c3)c2)[C@@H]1OC(=O)c1cc(O)c(O)c(OC(=O)c2cc(O)c(O)c(O)c2)c1)c1cc(O)c(O)c(OC(=O)c2cc(O)c(O)c(O)c2)c1 [Tannic acid] | – | Yes | –
CCCCCCCCCCCCCCCC(=O)OC[C@H](O)[C@H]1OC(=O)C(O)=C1O [Ascorbyl palmitate] | Yes | Yes | Yes
Oc1ccc(O)cc1 [Hydroquinone] | Yes | Yes | Yes
Tocopherols | – | – | Yes
O=C(O)c1cc(O)c(O)c(O)c1 [Gallic acid] | Yes | Yes | Yes
NC(N)=S [Thiourea] | Yes | Yes | No
Cc1cc(C(C)(C)C)c(O)c(C(C)(C)C)c1 [Butylated hydroxytoluene] | Yes | No | Yes
O[C@H](CS)[C@H](O)CS (racemic) [Dithiothreitol] | Yes | Yes | No
O=S([O-])S(=O)(=O)[O-].[K+].[K+] [Potassium metabisulfite] | No | Yes | No
COc1ccc(O)c(C(C)(C)C)c1 [Butylated hydroxyanisole] | Yes | No | Yes
D-tocopherol [D-tocopherol (syn)] | Yes | No | Yes
CC(C)(C)c1cc(CO)cc(C(C)(C)C)c1O [4-Hydroxymethyl-2,6-di-tert-butylphenol] | Yes | Yes | Yes
CC(=O)N[C@@H](CS)C(=O)O [Acetylcysteine] | Yes | Yes | No

Compound | Solubility In alcohol | Solubility In water | Solubility In oil
O=S([O-])[O-].[Ca+2] [Calcium sulfite] | Yes | Yes | –
CCCOC(=O)c1cc(O)c(O)c(O)c1 [Propyl gallate] | Yes | Slightly | Slightly
CCOc1ccc2c(c1)C(C)=CC(C)(C)N2 [Ethoxyquin] | – | – | Yes
CCCCCCCCCCCCOC(=O)c1cc(O)c(O)c(O)c1 [Dodecyl gallate] | Yes | No | Yes
Cc1cc2c(C(C)C)c(O)c(O)c(C=O)c2c(O)c1-c1c(C)cc2c(C(C)C)c(O)c(O)c(C=O)c2c1O [Gossypol] | Yes | No | Yes
OCC(O)CS (stereo not shown) [Monothioglycerol] | Yes | Yes | –
O=[PH2]O [Hypophosphorus acid] | – | Yes | –
Cc1c(C)c2c(c(C)c1O)CC[C@@](C)(CCC[C@H](C)CCC[C@H](C)CCCC(C)C)O2 [d-α-tocopherol (syn), d-α-tocopherol] | Yes | No | Yes
O=S([O-])[O-].[Na+].[Na+] [Sodium sulfite] | No | Yes | –
OC[C@@H](O)[C@@H](O)[C@H](O)[C@@H](O)CS [Thiosorbitol] | Yes | Yes | Yes
CCCCCCCCOC(=O)c1cc(O)c(O)c(O)c1 [Octyl gallate] | Yes | No | Yes
O=S([O-])O.[Na+] [Sodium bisulfite] | – | Yes | No
CC(Cc1ccc(O)c(O)c1)C(C)Cc1ccc(O)c(O)c1 (stereo not shown) [Nordihydroguaiaretic acid] | Yes | No | Yes
Cc1c(O)cc2c(c1C)O[C@](C)(CCC[C@H](C)CCC[C@H](C)CCCC(C)C)CC2 [γ-tocopherol (syn), γ-tocopherol] | Yes | No | Yes
O=S=O [Sulfur dioxide] | Yes | Yes | Yes
CCOC(=O)c1cc(O)c(O)c(O)c1 [Ethyl gallate] | Yes | Slightly | No
